Measurements reported in patent US12239647B2, “ALS treatment using induced regulatory T (iTREG) cells” (RAPA THERAPEUTICS, LLC, priority 2018, dated 2025).

Legend:
[1] = system: human CD4+ and CD8+ T cells; assay: RNA expression of T cell effector molecules after 3-day de-differentiation culture (Luminex Quantigene); format: cell-based; settings: 3-day culture, bead:T cell 1:3, temsirolimus 1 μM, Vitamin D 0.1 or 1.0 nM; relative to control Th1/Tc1 culture
Method: (§1) At the end of the de-differentiation interval, cells were harvested, RNA was isolated, and RNA expression analysis was performed by Luminex Quantigene method. All results shown represent relative RNA expression, with results normalized to a value of 1.0 for the Th1/Tc1 control culture.

[2] = system: human CD4+ and CD8+ T cells; assay: RNA expression of de-differentiation transcription factors and IL-7 receptor alpha after 3-day culture (Luminex Quantigene); format: cell-based; settings: bead:T cell 1:3, temsirolimus 1 μM, relative to control culture; for IL-7 receptor alpha RNA expression / KLF4 RNA expression / KLF10 RNA expression: Vitamin D 1.0 nM in combination; for Nanog RNA expression: Vitamin D 0.1 or 1.0 nM
Method: as §1

[3] = system: human CD4+ and CD8+ T cells; assay: RNA expression of Th1 transcription factors and HIF-1-α after 3-day culture (Luminex Quantigene); format: cell-based; settings: bead:T cell 1:3, temsirolimus 1 μM, Vitamin D 0.1 to 1.0 nM, relative to control culture
Method: as §1

[4] = system: human CD4+ and CD8+ T cells; assay: Western blot for mTORC1-related molecule Raptor after 3-day de-differentiation culture; format: cell-based
Excerpt: After the 3-day culture interval, the T cells were harvested, and protein was isolated and subjected to western blot analysis for the mTORC1 complex protein, Raptor, and the housekeeping gene, Actin.

[5] = system: human CD4+ and CD8+ T cells; assay: Western blot for Raptor, Rictor, p70S6K and SGK1 after 3-day de-differentiation culture; format: cell-based; settings: combination agent de-differentiation: temsirolimus 1 μM, Vitamin D 0.03 to 1.0 nM, Daclizumab 50 μg/ml; relative to control culture
Excerpt: After the 3-day culture interval, the T cells were harvested, and protein was isolated and subjected to western blot analysis for the mTORC1 complex protein, Raptor; the mTORC2 complex protein, Rictor; the post-mTORC1 protein p70S6K; the post-mTORC2 protein, SGK1; and the housekeeping gene, GAPDH.

[6] = system: human CD4+ and CD8+ T cells; assay: T cell yield at day 13 after de-differentiation and re-stimulation without inhibitors; format: cell-based; settings: for preferable concentration for T cell yield: de-differentiation interval
Method: After 10 days (13 days of total culture), the T cells were harvested, enumerated, and evaluated by flow cytometry. FIG. 8 illustrates the effect of culture components during the de-differentiation interval on subsequent T cell yield (at day 13 of culture). […] After the 3-day interval, media was exchanged to fresh X-Vivo 20 without inhibitors, high-level co-stimulation was provided (3:1 bead-to-T cell ratio), and the T cell growth cytokines IL-2 (100 IU/ml) and IL-7 (10 ng/ml) were added. At day 13 of culture, viable T cells were enumerated and the overall yield is shown relative to day 0 input number.

[7] = system: CD4+ T cells; assay: Flow cytometry of CD4+ T cell memory markers after de-differentiation interval; format: cell-based, human
Method: FIGS. 9A-9C illustrate the effect of culture components during the de-differentiation interval on CD4^+ T cell expression of memory markers (at day 13 of culture). […] After the 3-day interval, media was exchanged to fresh X-Vivo 20 without inhibitors, high-level co-stimulation was provided (3:1 bead-to-T cell ratio), and the T cell growth cytokines IL-2 (100 IU/ml) and IL-7 (10 ng/ml) were added. […] All results are shown relative to the value of CD4^+ T cells at culture initiation (last column in FIGS. 9A-9C; “Day 0 Input Value”).

[8] = system: CD8+ T cells; assay: Flow cytometry of CD8+ T cell memory markers after de-differentiation interval; format: cell-based, human; settings: reducing or eliminating only temsirolimus from the initial culture interval (columns #5 and 6)
Method: After the 3-day interval, media was exchanged to fresh X-Vivo 20 without inhibitors, high-level co-stimulation was provided (3:1 bead-to-T cell ratio), and the T cell growth cytokines IL-2 (100 IU/ml) and IL-7 (10 ng/ml) were added. T cells were subjected to flow cytometry for evaluation of co-expression of CD8^+, CD62L^+, and CCR7^+ markers (left panel; evaluated at day 10 of culture); and co-expression of CD8^+, CD62L^+, CCR7^+, and CD127^+ markers (right panel; evaluated at day 10 of culture). All results are shown relative to the value of CD8^+ T cells at culture initiation (last column in FIGS. 10A-10B; “Day 0 Input Value”).

[9] = system: human CD4+ and CD8+ T cells; assay: Cytokine secretion (Luminex) in extended hybrid Th2/TREG culture with temsirolimus or pemetrexed; format: cell-based; settings: hybrid TREG-Th2 condition; temsirolimus 1.0 μM or pemetrexed 10 nM
Excerpt: (§2) FIGS. 21A-21D illustrates that extended culture of de-differentiated T cells in the hybrid Th2/TREG polarization condition results in the generation of T cells expressing with a predominant Th2 cytokine phenotype: IL-4, IL-5, and IL-13 secretion. […] At days 12, 20, and 32 of culture, the T cells were harvested, washed, and re-stimulated with 3/28 beads (3:1 ratio) for 24 hr; the resultant supernatant was harvested and tested for cytokine content by Luminex multi-analyte method. All results shown are expressed as cytokine level in pg per ml per 1×10^6 cells/ml/24 hr. The Th2 cytokine IL-10 was also evaluated: all values were less than 20 pg/ml per 1×10^6 cells/ml/24 hr.
as §2, with “22A-22D illustrate” for “21A-21D illustrates”, “IL-2, IFN-γ,” for “IL-4, IL-5,”, “GM-CSF” for “IL-13”, “inflammatory cytokines IL-17 and TNF-α were” for “Th2 cytokine IL-10 was”

[10] = system: human CD4+ and CD8+ T cells; assay: Western blot for autophagy-related molecule p62 after 3-day de-differentiation culture; format: cell-based; settings: 3-day culture, bead:T cell 1:3; temsirolimus 1.0 or 0.3 μM, Vitamin D 0.01-1.0 nM, Daclizumab 50 μg/ml as indicated
Excerpt: The level of autophagy can be determined in-part by the subsequent up-regulation of the autophagy substrate, p62, by western blot analysis.
After the 3-day culture interval, the T cells were harvested, and protein was isolated and subjected to western blot analysis for the autophagy-related gene, p62, and the housekeeping gene, Actin.

[11] = system: human CD4+ and CD8+ T cells; assay: Cytokine secretion (Luminex) of de-differentiated T cells cultured in polarization-neutral media; format: cell-based; settings: vitamin D 0.01 nM during de-differentiation relative to 0.1 nM
Method: FIGS. 11A-11D depict the inflammatory Th1/Th17 cytokine analysis of cultured de-differentiated T cells in polarization-neutral media. […] After 3-days, the de-differentiated T cells were co-stimulated (typical bead-to-T cell ratio of 3:1) in media supplemented with the T cell growth cytokines rhu IL-2 (100 IU/ml) and rhu IL-7 (10 ng/ml), which are not potent in terms of inducing T cell polarization. After 10 days in culture (total, day 13 of culture), the T cells were harvested, washed, and re-stimulated with 3/28 beads (3:1 ratio) for 24 hr; the resultant supernatant was harvested and tested for cytokine content by Luminex multi-analyte method. All results shown are expressed as cytokine level in pg per ml per 1×10^6 cells/ml/24 hr.
FIGS. 12A-12D depicts the IL-2 and Th2-type cytokine analysis of cultured de-differentiated T cells in polarization-neutral media. […] After 3-days, the de-differentiated T cells were co-stimulated (typical bead-to-T cell ratio of 3:1) in media supplemented with the T cell growth cytokines rhu IL-2 (100 IU/ml) and rhu IL-7 (10 ng/ml), which are not potent in terms of inducing T cell polarization. […] All results shown are expressed as cytokine level in pg per ml per 1×10^6 cells/ml/24 hr.

[12] = system: human CD4+ and CD8+ T cells; assay: Western blot for pro-apoptosis molecule BIM after 3-day de-differentiation culture; format: cell-based; settings: 3-day culture, bead:T cell 1:3; Vitamin D 0.1 nM, Daclizumab 50 μg/ml
Excerpt: After the 3-day culture interval, the T cells were harvested, and protein was isolated and subjected to western blot analysis for the pro-apoptosis-related gene, BIM, and the housekeeping gene, Actin.
To assess this, we measured BIM levels in the T cells cultured with a low-strength of co-stimulation (1:3 bead-to-T cell ratio) and presence of the various inhibitors.

Molecule | Granzyme B RNA expression [1] | IFN-gamma RNA expression [1] | IL-10 RNA expression [1] | IL-7 receptor alpha RNA expression [2] | KLF4 RNA expression [2] | KLF10 RNA expression [2] | Nanog RNA expression [2] | HIF-1-α RNA expression [3] | STAT1 RNA expression [3] | T-BET RNA expression [3] | Rictor expression (western blot, FIG. 6) [5] | preferable concentration for T cell yield [6] [µM] | further results
CO[C@H]1C[C@@H]2CC[C@@H](C)[C@@](O)(O2)C(=O)C(=O)N2CCCC[C@H]2C(=O)O[C@H]([C@H](C)C[C@@H]2CC[C@@H](OC(=O)C(C)(CO)CO)[C@H](OC)C2)CC(=O)[C@H](C)/C=C(\C)[C@@H](O)[C@@H](OC)C(=O)[C@H](C)C[C@H](C)/C=C/C=C/C=C/1C [temsirolimus] | reduction | reduction | reduction | capable of up-regulating | neither temsirolimus nor Vitamin D alone increased | acts alone to beneficially up-regulate | up-regulation | did not down-regulate | acts alone to beneficially down-regulate | acts alone to beneficially down-regulate | effective | 1.0 | optimal dose for down-regulation of Raptor ([4]; combination of Vitamin D plus temsirolimus): 1.0 µM; Raptor expression ([4]; temsirolimus 0.3 μM (culture 9), versus 1.0 μM): higher levels of Raptor expression; T cell yield at day 13 of culture ([6]; temsirolimus concentration reduced to 0.1 μM (column #7)): reduced the resultant T cell yield; CD4+ CD45RA+ naïve T cell population ([7]; elimination of temsirolimus during the initial culture interval (culture #6)): depletion of the naïve T cell population; frequency of CD4+ triple-positive (CD62L, CCR7, CD127) T cells ([7]; reducing or eliminating only temsirolimus from the initial culture interval (columns #5 and 6)): greatly reduced the frequency of triple-positive T cells; frequency of CD8+ triple-positive (CD62L, CCR7, CD127) T cells [8]: greatly reduced the frequency of triple-positive T cells; IL-5 secretion [9]: blunted; IL-13 secretion [9]: blunted
C=C1/C(=C\C=C2/CCC[C@]3(C)[C@@H]([C@H](C)CCCC(C)(C)O)CC[C@@H]23)C[C@@H](O)C[C@@H]1O [Vitamin D, Calcitriol] | reduction | reduction | reduction | not Vitamin D alone | neither temsirolimus nor Vitamin D alone increased | does not act alone to up-regulate | does not act alone to up-regulate | did not down-regulate | acts alone to beneficially down-regulate | acts alone to beneficially down-regulate | effective | 0.0001 | p62 expression (western blot, autophagy marker) [10]: increased p62 expression; Raptor expression ([4]; Vitamin D 0.3 nM (culture 7), versus 0.1 nM): higher level of Raptor expression; Raptor inhibition ([4]; Vitamin D level reduced to 0.01 nM): sub-optimal Raptor inhibition; T cell yield at day 13 of culture ([6]; Vitamin D concentration increased to 1.0 nM (column #6)): very low yield; T cell yield at day 13 of culture ([6]; Vitamin D concentration reduced to 0.01 nM (column #5)): very low yield; IFN-γ secretion [11]: somewhat higher levels; TNF-α secretion [11]: somewhat higher levels
Daclizumab: anti-IL-2 receptor monoclonal antibody (antibody, chains of the INN, looked up, V domains shown) VH: QVQLVQSGAEVKKPGSSVKVSCKASGYTFTSYRMHWVRQAPGQGLEWIGYINPSTGYTEYNQKFKDKATITADESTNTAYMELSSLRSEDTAVYYCARGGGVFDYWGQGTLVTVSS VL: DIQMTQSPSTLSASVGDRVTITCSASSSISYMHWYQQKPGKAPKLLIYTTSNLASGVPARFSGSGSGTEFTLTISSLQPDDFATYYCHQRSTYPLTFGQGTKVEVK |  |  |  |  |  |  |  |  |  |  | did not abrogate |  | Raptor expression (western blot, normalized by actin) ([4]; 3-day culture, bead:T cell 1:3, temsirolimus 1.0 μM, Vitamin D 0.1 nM, Daclizumab 50 μg/ml): beneficial role in suppressing; BIM expression (western blot, normalized by actin) [12]: beneficial role in suppressing
